“And” between values parts separate entries of the source, which are not always exact repeats. Identical values can stand only once.
Assays:
[1] = Ocular irritation screening study in the rabbit (Draize score, soaked soft lenses); type: in vivo; set-up: key to Draize macroscopic ocular score (weighted total): Draize weighted total score; max 110 per eye; settings: rabbit, in vivo, topical or ocular; 4 ppm formulation; rabbits; read-out: safety margin relative to initial onset of abnormal ocular health
Method: (§1) A series of formulations were prepared in which the amount of alexidine were, respectively 4 ppm (test 1), 6 ppm (test 2), 8 ppm (test 3), 10 ppm (test 4), 12 ppm (test 5), 15 ppm (test 6), 18 ppm (test 7), 22 ppm (test 8), 27 ppm (test 9), 33 ppm (test 10), 40 ppm (test 11) and 50 ppm (test 12). These test solutions of alexidine were used in soaking J&J Sure Vue® (etafilcon A) lenses (soft lenses) in 2.5 mL of solution for 1 week or more in order to reach maximal alexidine uptake.
(§2) An ocular irritation screening study was conducted in the rabbit to determine the threshold for ocular irritation. Eyes treated with the lenses were compared to a contralateral control eye. Treated lenses were placed on the right eye of rabbits; control lenses were placed on the left eye. Any lenses displaced from the eyes during the lens wear day were reinserted after rinsing with 0.9% sodium chloride USP solution (SC). Eyes were examined with the aid of a direct light source before lens placement, at 50-70 minutes, 7-8 hours, 23-24 hours, and 30-32 hours after placement. Macroscopic observations were recorded in accordance with criteria in the Draize^* score system. The maximum total score is the sum of all scores obtained for the cornea, iris, and conjunctivae. Total maximum score possible is 110 per eye, 80 with respect to the cornea, 10 with respect to the iris, and 20 with respect to the conjunctivae.
(§3) *Draize, J. H., G. Woodward and H. O. Calvery. 1944. Methods for the study of irritation and toxicity of substances applied topically to the skin and mucous membranes. J. Pharmacol. Exp. Ther. 82:377-390.

[2] = test system: rabbit eye (cornea, iris, conjunctivae); assay: as above; type: in vivo; set-up: key to Draize macroscopic ocular score (weighted total): Draize weighted total score; max 110 per eye; settings: for Draize macroscopic ocular score (weighted total): right (test) eye
Method: as §1, §2, §3

## CCCCC(CC)CNC(=N)NC(=N)NCCCCCCNC(=N)NC(=N)NCC(CC)CCCC.Cl.Cl (stereo not drawn) [Alexidine.2HCl, 1,1 '-hexamethylenebis(5-(2-ethylhexyl)-biguanide) dihydrochloride]
[1]
  selectivity ratio: 2.5
[2]; 4.0 ppm, based on rabbit studies
  safety in disinfecting soft lenses: very safe for human use in disinfecting soft lenses
[2]; 4 ppm, 7-8 hours post lens
  Draize macroscopic ocular score (weighted total): 2
[2]; 4 ppm, 23-24 hours post lens
  Draize macroscopic ocular score (weighted total): 2
[2]; 4 ppm, 30-32 hours post lens
  Draize macroscopic ocular score (weighted total): 2
[2]; 4 ppm, 50-70 minutes post lens
  Draize macroscopic ocular score (weighted total): 2
[2]; 6 ppm, 7-8 hours post lens
  Draize macroscopic ocular score (weighted total): 2
[2]; 6 ppm, 23-24 hours post lens
  Draize macroscopic ocular score (weighted total): 2
[2]; 6 ppm, 30-32 hours post lens
  Draize macroscopic ocular score (weighted total): 2
[2]; 6 ppm, 50-70 minutes post lens
  Draize macroscopic ocular score (weighted total): 2
[2]; 8 ppm, 7-8 hours post lens
  Draize macroscopic ocular score (weighted total): 2
[2]; 8 ppm, 23-24 hours post lens
  Draize macroscopic ocular score (weighted total): 2
[2]; 8 ppm, 30-32 hours post lens
  Draize macroscopic ocular score (weighted total): 2
[2]; 8 ppm, 50-70 minutes post lens
  Draize macroscopic ocular score (weighted total): 2
[2]; 10 ppm, 7-8 hours post lens, dihydrochloride
  Draize macroscopic ocular score (weighted total): 4 and 2
[2]; 10 ppm, 50-70 minutes post lens
  Draize macroscopic ocular score (weighted total): 2
[2]; 12 ppm, 7-8 hours post lens
  Draize macroscopic ocular score (weighted total): 2
[2]; 12 ppm, 23-24 hours post lens
  Draize macroscopic ocular score (weighted total): 2
[2]; 12 ppm, 30-32 hours post lens
  Draize macroscopic ocular score (weighted total): 2
[2]; 12 ppm, 50-70 minutes post lens
  Draize macroscopic ocular score (weighted total): 2
[2]; 15 ppm, 7-8 hours post lens
  Draize macroscopic ocular score (weighted total): 4
[2]; 15 ppm, 30-32 hours post lens
  Draize macroscopic ocular score (weighted total): 2
[2]; 15 ppm, 50-70 minutes post lens, dihydrochloride
  Draize macroscopic ocular score (weighted total): 2 and 4
[2]; 18 ppm, 7-8 hours post lens
  Draize macroscopic ocular score (weighted total): 6
[2]; 18 ppm, 23-24 hours post lens
  Draize macroscopic ocular score (weighted total): 2
[2]; 18 ppm, 30-32 hours post lens
  Draize macroscopic ocular score (weighted total): 2
[2]; 18 ppm, 50-70 minutes post lens
  Draize macroscopic ocular score (weighted total): 2
[2]; 22 ppm, 7-8 hours post lens
  Draize macroscopic ocular score (weighted total): 11
[2]; 22 ppm, 23-24 hours post lens
  Draize macroscopic ocular score (weighted total): 2
[2]; 22 ppm, 30-32 hours post lens
  Draize macroscopic ocular score (weighted total): 2
[2]; 22 ppm, 50-70 minutes post lens
  Draize macroscopic ocular score (weighted total): 2
[2]; 27 ppm, 50-70 minutes post lens
  Draize macroscopic ocular score (weighted total): 2
[2]; lenses soaked in solution
  conjunctival reaction clearly defined: 15 ppm
  corneal opacity observed: 27 ppm
  iridial involvement observed: 22 ppm
[2]; lenses soaked, after 7-8 hours of lens wear
  first signs of increased ocular toxicity (conjunctival reactions): 10 ppm

From patent publication US5965088A, “Method for providing rapid disinfection of contact lenses” (priority 1997, dated 1999)
